Data reported in patent US12065443B2, “Compounds and pharmaceutical compositions thereof for the treatment of diseases” (priority 2017, dated 2024).
Like-named read-outs stand apart in the source and are kept apart here.

Experiments:
[1] = molecular target: T1, SIK2 (Homo sapiens, UniProt Q9H0K1); assay: biochemical; conditions: ADP-Glo SIK kinase assay
T1 construct: purchased ThermoFisher Scientific PV4792
Protocol: (§1) The ADP-Glo™ kinase assay is a luminescent technology assay which measures the ADP formed from a kinase reaction. […] In a second step the kinase reactions are terminated and all the remaining ATP is depleted. In a final step the ADP is converted into ATP and this newly synthesized ATP is measured by using a luciferase/luciferin reaction. The generated light is measured using an Envision plate reader, wherein the luminescent signal obtained positively correlates with the kinase activity.
(§2) 1% DMSO and 10 μM staurosporine final concentrations are used as negative and positive controls.
(§3) 2 μL enzyme-substrate mixture is added to the assay plates.
(§4) The reaction is started by adding 2 μL diluted ATP on the assay plates. Plates are centrifuged for a few seconds at 1000 rpm and gently shaken for 2 min followed by an incubation at RT for 120 min.
(§5) The reactions are stopped and the unconsumed ATP is depleted by adding 5 μL ADP-Glo Reagent (Promega, Cat #V912B) to the reaction. The plates are centrifuged for a few seconds at 1000 rpm and incubated at RT for 40 min (ATP depletion).
(§6) The ADP is converted to ATP and luciferase and luciferin is introduced to detect ATP by adding 10 μL Kinase Detection Reagent (Promega, Cat #V913B+V914B) to the reaction. The plates are centrifuged for a few seconds at 1000 rpm and incubated at RT for 30 min (ADP detection).
(§7) Luminescence is measured on an Envision plate reader (PerkinElmer Inc.).

[2] = molecular target: T2, SIK1 (Homo sapiens, UniProt P57059); assay: biochemical; conditions: ADP-Glo SIK kinase assay
T2 construct: purchased Carna Biosciences 02-131
Protocol: as §1, §2, §3, §4, §5, §6, §7

[3] = molecular target: T3, SIK3 (Homo sapiens, UniProt Q9Y2K2); assay: biochemical; conditions: ADP-Glo SIK kinase assay
T3 construct: purchased SignalChem S12-11G-100
Protocol: as §1, §2, §3, §4, §5, §6, §7

[4] = molecular target: T1, SIK2; assay: biochemical; conditions: 33P radioactive SIK kinase assay, AMARA peptide, 10 μM ATP
Summary of the method: (§8)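 Read-out: ^33P incorporated into AMARA peptide, counted on filter plates, taken as kinase activity. Reactions start on addition of labeled/unlabeled ATP to enzyme plus substrate and end with phosphoric acid. Controls: 1% DMSO (negative) and 10 μM staurosporine (positive), final.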

[5] = molecular target: T2, SIK1; assay: biochemical; conditions: 33P radioactive SIK kinase assay, AMARA peptide, 10 μM ATP; read-out: SIK1 IC50
Summary of the method: as §8

[6] = molecular target: T3, SIK3; assay: biochemical
Summary of the method: as §8

[7] = system: LPS-induced TNFα secretion in monocyte-derived macrophages (MdM); assay: MdM assay: LPS-triggered TNFα (ELISA); format: cell-based, human; conditions: Homo sapiens, Macrophage, LPS-triggered TNFα inhibition
Summary of the method: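 Human CD14+ monocytes isolated from buffy-coat PBMCs by magnetic beads, differentiated to macrophages; on day 10 compound preincubated 1 h at 37 °C, then LPS 200 ng/mL added (0.2% DMSO). Supernatant taken after 20 h; TNFα quantified by sandwich ELISA against standard curve.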

[8] = system: LPS triggered IL-10 secretion in monocyte-derived macrophages (MdM); assay: MdM assay: LPS-triggered IL-10 (ELISA); format: cell-based, human; conditions: maximal fold change vs LPS only, median across assays
Protocol: This assay evaluates illustrative compounds of the invention for their inhibition of LPS-induced TNFα and LPS triggered IL-10 secretion in monocyte-derived macrophages.
PBMCs are isolated from human blood samples (buffycoats). The buffy coat is aseptically transferred into a 50 mL Falcon tube, and diluted 1/2 in PBS. Falcon tubes are filled with 20 mL Lymphoprep™, on top of which 25 mL of the buffy coat is carefully added, tubes are centrifuged for 35 min at 400 g in temperature controlled centrifuge, without brake, at 25° C. PBMCs are aspirated from the white interface layer between sample and Lymphoprep™. PBMCs are washed five times in PBS.
PBMCs are centrifuged at 300×g for 10 min and resuspended at a density of 1.0E07 cells/80 μL Miltenyi buffer (PBS, pH 7.4, 1% FBS, 2 mM EDTA).
Starting from this point of the protocol all steps are performed on ice. 20 μL of CD14+ micro-beads are added per 1.0E07 cells, the tube is mixed and incubated for 15 min in the fridge at 4° C. Cell suspension volume is adjusted to total volume of 100 mL using Miltenyi buffer, mixed gently and subsequently centrifuged for 10 min at 300× g. Supernantant is discarded and cell pellet is resuspended in 12 mL of Miltenyi buffer.
Four LS columns are placed in the MACS Separator (magnet) from Miltenyi Biotec, and are prewet by rinsing with 3 mL of MACS buffer per column. Three mL of cell suspension is added onto the column (max 1*10^8 of labelled cells/column), and columns are subsequently washed 3 times with 3 mL of Miltenyi buffer.
The columns are removed from the magnets, and 5 mL of Miltenyi buffer are added to the column to flush out the CD14+ fraction by pushing the plunger into the column. The flushed fractions are collected in a fresh 50 mL Falcon and volume is adjusted to 30 mL using Miltenyi buffer, cells are centrifuged for 10 min at 300× g. The obtained cell pellet is resuspended in 10 mL RPMI w/o FBS, and cell density is determined using a hematologic analyser (Sysmex XS-500i).
On day 10, MdMs are triggered and compound is added.
A compound dilution plate is made in 100% DMSO by 3-fold dilution of 10 mM stock solution. An intermediate dilution plate (10× final concentration) is made by diluting the compound dilution plate 50-fold in RPMI medium.
Medium is carefully removed from cell plates using multichannel pipette, and replaced by 80 μL fresh medium. 10 μL of the 10× final concentration compound is added to the cells and incubated for 1 hour at 37° C. before addition of trigger. No trigger conditions/trigger conditions are spiked with equal final DMSO concentrations of 0.2% DMSO. 10 μL of 10×LPS (final conc. 200 ng/mL) solution are added to all wells except for the ‘no trigger wells’ where 10 μL medium is added. Supernatant is collected after 2 h (IL-10 determination) and after 20 h (TNFα determination) of LPS triggering.
Plates are washed three times with PBST, where after 100 μL of Strep-HRP conjugate (0.5 μg/mL final concentration diluted in dilution buffer) is added. Plates are incubated in the dark, at 37° C. for 30 min. Plates are washed three times with PBST. […] 100 μL of substrate solution is added to each well and incubated until brilliant blue color develops. The reaction is stopped by adding 50 μL of 1 M H2SO4, after which absorbance is measured at 450 nm on the SpectraMax i3, Molecular Devices.
To quantify these inductions fold changes (FC) compared to ‘LPS only’ are calculated for each concentration tested and the maximal FC is calculated (IL-10 FCmax):
[formula] wherein ABS=Absorbance measured at 450 nm.
The median maximal FC for test compounds across two or more assays is reported (IL-10FCmax median).

T2 sequence (P57059 whole entry): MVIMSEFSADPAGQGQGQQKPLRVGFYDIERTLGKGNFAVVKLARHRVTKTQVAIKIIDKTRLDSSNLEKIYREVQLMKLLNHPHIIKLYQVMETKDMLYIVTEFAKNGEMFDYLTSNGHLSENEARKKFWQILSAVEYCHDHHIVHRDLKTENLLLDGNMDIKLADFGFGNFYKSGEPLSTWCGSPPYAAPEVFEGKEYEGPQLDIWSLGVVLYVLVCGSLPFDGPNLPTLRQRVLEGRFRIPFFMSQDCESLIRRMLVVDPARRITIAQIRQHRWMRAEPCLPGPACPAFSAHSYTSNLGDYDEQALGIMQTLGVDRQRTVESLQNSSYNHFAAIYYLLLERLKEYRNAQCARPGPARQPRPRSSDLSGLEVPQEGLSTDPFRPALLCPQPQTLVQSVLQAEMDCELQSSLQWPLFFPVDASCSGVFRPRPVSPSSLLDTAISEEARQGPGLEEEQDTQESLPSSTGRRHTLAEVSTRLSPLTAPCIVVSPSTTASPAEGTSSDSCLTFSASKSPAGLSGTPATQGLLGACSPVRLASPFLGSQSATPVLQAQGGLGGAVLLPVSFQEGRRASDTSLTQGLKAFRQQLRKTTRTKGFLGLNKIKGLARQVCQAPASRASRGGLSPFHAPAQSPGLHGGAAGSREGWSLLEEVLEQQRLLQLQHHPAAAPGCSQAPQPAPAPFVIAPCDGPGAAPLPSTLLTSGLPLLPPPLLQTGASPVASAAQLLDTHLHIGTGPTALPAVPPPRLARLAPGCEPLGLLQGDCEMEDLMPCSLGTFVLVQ
T3 sequence (Q9Y2K2 whole entry): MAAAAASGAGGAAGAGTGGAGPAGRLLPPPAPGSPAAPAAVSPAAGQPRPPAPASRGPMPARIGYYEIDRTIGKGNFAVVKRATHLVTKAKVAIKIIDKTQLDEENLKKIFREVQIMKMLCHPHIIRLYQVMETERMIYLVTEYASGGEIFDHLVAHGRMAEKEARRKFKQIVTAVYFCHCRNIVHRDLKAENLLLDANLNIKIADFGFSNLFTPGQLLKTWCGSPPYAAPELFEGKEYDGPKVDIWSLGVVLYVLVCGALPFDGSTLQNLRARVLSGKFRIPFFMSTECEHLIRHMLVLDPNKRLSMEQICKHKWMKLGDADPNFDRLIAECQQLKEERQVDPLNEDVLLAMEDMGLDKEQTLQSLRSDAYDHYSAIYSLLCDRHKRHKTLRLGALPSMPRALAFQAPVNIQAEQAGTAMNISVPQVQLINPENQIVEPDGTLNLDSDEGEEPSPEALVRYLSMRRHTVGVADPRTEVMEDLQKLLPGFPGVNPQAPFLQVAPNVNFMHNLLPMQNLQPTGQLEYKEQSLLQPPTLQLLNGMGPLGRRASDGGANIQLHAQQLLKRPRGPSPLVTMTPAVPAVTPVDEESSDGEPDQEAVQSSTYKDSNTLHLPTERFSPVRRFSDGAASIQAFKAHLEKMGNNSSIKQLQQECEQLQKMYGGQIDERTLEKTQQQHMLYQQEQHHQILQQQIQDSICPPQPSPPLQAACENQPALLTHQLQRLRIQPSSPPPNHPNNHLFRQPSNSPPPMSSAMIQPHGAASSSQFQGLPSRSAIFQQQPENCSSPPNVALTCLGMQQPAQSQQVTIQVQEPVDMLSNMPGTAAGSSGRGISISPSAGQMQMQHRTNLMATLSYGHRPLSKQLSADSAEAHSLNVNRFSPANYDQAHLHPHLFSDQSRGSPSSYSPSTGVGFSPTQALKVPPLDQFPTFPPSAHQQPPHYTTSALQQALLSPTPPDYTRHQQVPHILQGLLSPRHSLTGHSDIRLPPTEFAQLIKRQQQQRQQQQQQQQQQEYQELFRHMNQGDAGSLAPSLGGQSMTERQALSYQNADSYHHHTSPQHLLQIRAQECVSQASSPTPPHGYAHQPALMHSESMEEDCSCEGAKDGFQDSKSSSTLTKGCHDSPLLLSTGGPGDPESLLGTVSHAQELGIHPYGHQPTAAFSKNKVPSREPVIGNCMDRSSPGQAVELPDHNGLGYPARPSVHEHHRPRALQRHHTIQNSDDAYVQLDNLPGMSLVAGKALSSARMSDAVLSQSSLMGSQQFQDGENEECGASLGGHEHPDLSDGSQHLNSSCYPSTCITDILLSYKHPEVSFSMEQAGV
T1 sequence (Q9H0K1 whole entry): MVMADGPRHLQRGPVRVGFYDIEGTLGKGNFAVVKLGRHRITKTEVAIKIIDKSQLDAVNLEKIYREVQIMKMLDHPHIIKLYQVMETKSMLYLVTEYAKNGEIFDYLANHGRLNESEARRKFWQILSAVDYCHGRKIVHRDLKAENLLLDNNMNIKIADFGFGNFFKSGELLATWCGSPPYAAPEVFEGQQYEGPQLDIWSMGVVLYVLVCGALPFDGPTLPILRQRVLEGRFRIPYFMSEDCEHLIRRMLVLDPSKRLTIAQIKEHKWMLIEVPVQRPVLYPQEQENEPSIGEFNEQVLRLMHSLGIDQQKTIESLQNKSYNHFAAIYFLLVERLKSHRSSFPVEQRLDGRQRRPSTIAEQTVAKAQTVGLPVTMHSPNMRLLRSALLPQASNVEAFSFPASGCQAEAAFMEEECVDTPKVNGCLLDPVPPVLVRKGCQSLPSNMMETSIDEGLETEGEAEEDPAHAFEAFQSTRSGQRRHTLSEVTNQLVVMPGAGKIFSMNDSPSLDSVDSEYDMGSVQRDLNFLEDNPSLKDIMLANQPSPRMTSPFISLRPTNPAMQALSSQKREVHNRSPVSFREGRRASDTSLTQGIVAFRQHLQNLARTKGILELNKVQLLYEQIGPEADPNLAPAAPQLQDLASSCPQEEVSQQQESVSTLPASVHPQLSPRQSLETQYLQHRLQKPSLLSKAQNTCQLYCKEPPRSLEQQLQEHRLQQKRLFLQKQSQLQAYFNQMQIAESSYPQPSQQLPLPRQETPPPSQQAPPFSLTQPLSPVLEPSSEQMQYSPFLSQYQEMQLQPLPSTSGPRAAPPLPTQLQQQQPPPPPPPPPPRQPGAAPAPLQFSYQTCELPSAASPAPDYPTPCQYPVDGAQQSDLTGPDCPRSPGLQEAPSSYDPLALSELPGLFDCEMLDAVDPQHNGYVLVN

Compound	IC50 [1] [nM]	IC50 [2] [nM]	IC50 [3] [nM]	IC50 [4] [nM]	IC50 [5] [nM]	IC50 [6] [nM]	EC50 [7] [nM]	IL-10 FCmax median [8]
COc1cc(-n2cnc3cc(-c4cnn(C)c4)ccc32)cc(OC)c1C(=O)N[C@@H]1C[C@@H]1F [compound 144, N-[(1R,2S)-2-fluorocyclopropyl)-2,6-dimethoxy-4-[5-(1-methylpyrazol-4-yl)benzimidazol-1-yl]benzamide]	–	–	–	0.01 to 10	0.01 to 10	0.01 to 10	0.1 to 100	++ (>1.5-4.5)
CCNC(=O)c1c(OC)cc(-c2cnc3cc(-c4cnn(C5CCN(C)CC5)c4)ccn23)cc1OC(F)F [compound 148, 2-(difluoromethoxy)-N-ethyl-6-methoxy-4-[7-[1-(1-methyl-4-piperidyl)pvrazol-4-yl]imidazo[1,2-a]pyridin-3-yl]benzamide]	–	–	–	0.01 to 10	0.01 to 10	0.01 to 10	0.1 to 100	++ (>1.5-4.5)
COc1cc(-n2cnc3cc(-c4cnn(C)c4)ccc32)cc(OC)c1C(=O)N[C@@H]1C[C@@H]1C(F)F [compound 158]	–	–	–	0.01 to 10	10 to 100	0.01 to 10	100 to 1000	++ (>1.5-4.5)
COc1cc(-c2cnc3cc(-c4cnn(C)c4)ccn23)cc(OC)c1C(=O)N1CC(C#N)C1 [compound 209, 1-[2,6-dimethoxy-4-[7-(1-methylpyrazol-4-yl)imidazo[1,2-a]pyridin-3-yl]benzoyl)azetidine-3-carbonitrile]	–	–	–	0.01 to 10	0.01 to 10	0.01 to 10	100 to 1000	++ (>1.5-4.5)
COc1cc(-n2cnc3cc(-c4cnn(C)c4)ccc32)cc(OC)c1C(=O)N1CC(O)(C(F)(F)F)C1 [compound 219, [2,6-dimethoxy-4-[5-(1-methylpyrazol-4-yl)benzimidazol-1-yl]phenyl]-[3-hydroxy-3-(trifluoromethyl)azetidin-1-yl]methanone]	–	–	–	0.01 to 10	0.01 to 10	0.01 to 10	100 to 1000	++ (>1.5-4.5)
COc1cc(-c2cnc3cc(-c4cc(C)no4)ccn23)cc(OC)c1C(=O)N[C@H](C)C(F)(F)F [compound 223, 2,6-dimethoxy-4-[7-(3-methylisoxazol-5-yl)imidazo[1,2-a]pyridin-3-yl]-N-[(1R)-2,2,2-trifluoro-1-methyl-ethyl]benzamide]	–	–	–	10 to 100	10 to 100	10 to 100	100 to 1000	+++ (>4.5)

Now from value to compound, other results behind:

IC50 [1] [nM]	IC50 [2] [nM]	IC50 [3] [nM]	IC50 [4] [nM]	IC50 [5] [nM]	IC50 [6] [nM]	EC50 [7] [nM]	Compound	IL-10 FCmax median [8]
0.01 to 10	0.01 to 10	0.01 to 10	–	–	–	–	[2H]C([2H])([2H])Oc1cc(-c2cnc3cc(-c4cnn(C)c4)ccn23)cc(OC([2H])([2H])[2H])c1C(=O)NCC(F)(F)F [Cpd 266, 4-[7-(1-methylpyrazol-4-yl)imidazo[1,2-a]pyridin-3-yl]-2,6-bis(trideuterio-methoxy)-N-(2,2,2-trifluoroethyl)benzamide]	–
–	–	–	0.01 to 10	10 to 100	0.01 to 10	100 to 1000	COc1cc(-c2cnc3cc(-c4cnn(C)c4)ccn23)cc(Cl)c1C(=O)NCC(F)(F)F [compound 207, 2-chloro-6-methoxy-4-[7-(1-methylpyrazol-4-yl)imidazo[1,2-a]pyridin-3-yl]-N-(2,2,2-trifluoroethyl)benzamide]	++ (>1.5-4.5)
–	–	–	0.01 to 10	0.01 to 10	0.01 to 10	100 to 1000	COc1cc(-c2cnc3cc(-c4cn[nH]c4)ccn23)cc(OC)c1C(=O)N[C@H](C)C(F)(F)F [compound 222, 2,6-dimethoxy-4-[7-(1H-pyrazol-4-yl)imidazo[1,2-a]pyridin-3-yl]-N-[(1R)-2,2,2-trifluoro-1-methyl-ethyl]benzamide]	+++ (>4.5)
–	–	–	0.01 to 10	10 to 100	0.01 to 10	100 to 1000	COc1ccc(-c2ccn3c(-c4cc(OC)c(C(=O)NCC(F)(F)F)c(OC)c4)cnc3c2)cn1 [compound 239, 2,6-dimethoxy-4-[7-(6-mcthoxy-3-pyridyl)imidazo[1,2--a]pyridin-3-yl]-N-(2,2,2-trifluoroethyl)benzamide]	++ (>1.5-4.5)
–	–	–	10 to 100	100 to 500	0.01 to 10	100 to 1000	COc1cc(-c2cnc3cc(-c4ccc(C#N)nc4)ccn23)cc(OC)c1C(=O)NCC(F)(F)F [compound 240, 4-[7-(6-cyano-3-pyridyl)imidazo[1,2-a]pyridin-3-yl]-2,6-dimethoxy-N-(2,2,2-trifluoroethyl)benzamide]	+ (≤1.5)
–	–	–	0.01 to 10	0.01 to 10	0.01 to 10	0.1 to 100	COC(=O)CCCn1cc(-c2ccn3c(-c4cc(OC)c(C(=O)NCC(F)(F)F)c(OC)c4)cnc3c2)cn1 [compound 256, methyl 4-[4-[3-[3,5-dimethoxy-4-(2,2,2-trifluoroethyl-carbamoyl)phenyl]imidazo[1,2-a]pyridin-7-yl]pyrazol-1-yl]butanoate]	++ (>1.5-4.5)
–	–	–	0.01 to 10	0.01 to 10	0.01 to 10	0.1 to 100	CCOC(=O)CCCn1cc(-c2ccn3c(-c4cc(OC)c(C(=O)NCC(F)(F)F)c(OC)c4)cnc3c2)cn1 [compound 257, ethyl 4-[4-[3-[3,5-dimethoxy-4-(2,2,2-trifluoroethyl-carbamoyl)phenyl]imidazo[1,2-a]pyridin-7-yl]pyrazol-1-yl]butanoate]	+ (≤1.5)
